The values below are quoted from earlier work in patent US11510865B2, “Magnolia bark extract as a hydrophobic ligand for preferential removal of gram negative bacteria from the oral cavity” (WM. WRIGLEY JR. COMPANY, priority 2015, dated 2022).

In the data set the test system is S. mutans (ATCC 10449). Particulars: increased from 0.01; Jongsma et al. 2015.

Regarding `Oc1cc(Cl)ccc1Oc1ccc(Cl)cc1Cl` [triclosan], the removal rate is on record as 0.05.
